Entries after “also recorded” stand apart in the source; their conditions may differ. Read-outs that look alike come from different tables or passages of the source.
Assays:
[1] = Stability of the analytes in rat plasma samples under storage conditions; type: physicochemical; settings: n = 6
Procedure: The bioanalytical method validation was evaluated for specificity, linearity, sensitivity, precision and accuracy, recovery, matrix effect, and stability to ensure compliance with the U.S. Food and Drug Administration (FDA) guidance on precise quantitative analysis ([Center for Drug Evaluation and Research of the U.S., 2018]). The assessment of specificity was conducted by comparing the chromatograms obtained from blank plasma, blank plasma spiked with the target components, and samples gathered following the oral administration of OS extract. Calibration curves were constructed by plotting the ratio for the peak area of the analyte to IS versus the concentration, with 1/x^2 serving as the weighting factor. The lower limit of quantification (LLOQ) was defined as the concentration at which a signal to noise ratio of […] 10 was achievable. The evaluation of precision and accuracy involved the analysis of six QC samples, both within a single day and over 3 consecutive days. Accuracy was expressed as the relative error (RE), whereas precision was gauged via relative standard deviation (RSD). Extraction recovery was ascertained by juxtaposing the responses of analytes in extracted samples against those in samples that were spiked post-extraction. The matrix effect was scrutinized by determining the ratio of the responses of the analytes in post-extraction spiked samples to those in the mixed standard solution. The stability of the analytes in plasma samples was explored under diverse conditions: encompassing a 12-h period in an autosampler, a 4-h interval at room temperature, three cycles of freezing–thawing, and a 7-day duration at −80 °C.
The retention times of the analyte peaks were consistent with those in the spiked samples. […] The LLOQs for chrysin, chrysin-7-O-β-D-glucuronide, hispidulin, wogonoside, quercetin, quercetin-7-O-β-D-glucoside, baicalin, baicalein, acacetin, oroxin A, oroxin B, oroxylin A, oroxylin A-7-O-β-D-glucuronide, apigenin, and scutellarein were 1.0, 2.0, 1.0, 0.3, 1.0, 0.1, 9.0, 6.0, 0.3, 6.0, 4.0, 1.0, 2.0, 0.5, and 0.3 ng/mL, respectively. In Supplementary Table S2, the RE for accuracy is between −13.77% and 12.55%, and the RSD for precision is below 14.55% (both intra- and inter-day). […] The matrix effect varied from 60.15% to 115.53%, with RSD values below 10.54%. In Supplementary Table S4, the RSD values for stability of the analytes are found to be lower than 13.98%, meaning that these components were stable under the following conditions: encompassing a 12-h period in an autosampler, a 4-h interval at room temperature, three cycles of freezing and thawing, and a 7-day duration at −80 °C.

[2] = Pharmacokinetic study in rats after oral administration of OS extract (UHPLC-QqQ-MS/MS of plasma); type: in vivo, rat; settings: for concentration at 0.5 h: SD
Procedure: The UHPLC-QqQ-MS/MS system consisted of a 1290 UHPLC and a 6470 mass spectrometer (Agilent Technologies). Chromatographic separation was realized on utilizing an ACQUITY UPLC BEH C18 column (2.1 × 100 mm, 1.7 μm) maintained at 35 °C. The mobile phase consisting of 0.1% formic acid in water (A) and acetonitrile (B) was utilized with the elution program set at 0 min–1 min, 5% B–30% B; 1 min–4 min, 30% B– 50% B; 4 min–8 min, and 50% B–90% B. The injection volume was 5 μL, and the flow rate was 0.3 mL/min. The mass spectrometry parameters in the negative ion mode, gas temperature, flow rate, and nebulizer pressure were 300 °C, 7 L/min, and 35 psi, respectively. The mass spectra properties of the 15 analytes and the IS are illustrated in Table 1.
To 100 μL of the plasma sample, 20 μL of methanol, 20 μL of IS solution (methylparaben, 1 μg/mL), and 5 μL of formic acid were added and vortexed for a duration of 2 min. Subsequently, the mixture underwent extraction with 800 μL of acetonitrile for 3 min. Following 10 min of centrifugation at 12,000 g, the supernatant was collected and evaporated to dryness under N2 to obtain the residue. Finally, the residue was reconstituted in 50% methanol (100 μL) and utilized for analysis.
Before initiating the study, six male SD rats underwent a 12-h fasting period, during which they were granted unrestricted access to water. Then, the rats were administered an oral dose of 3 g/kg of the OS extract, which had been dissolved in 0.5% CMC-Na aqueous solution. Blood samples, approximately 200 μL each, were collected at various time points: before administration and at 0.03, 0.08, 0.17, 0.25, 0.5, 0.75, 1, 2, 4, 6, 8, 10, 12, 24, 36, and 48 h post-administration. Following 10 min of centrifugation at 6,000 g, the resultant samples were stored at −80 °C.
The developed method was effectively applied to study the pharmacokinetics in rats following oral administration of the OS extract. […] This was likely due to their low concentrations in the OS extract. Ultimately, nine components (chrysin, chrysin-7-O-β-D-glucuronide, baicalin, baicalein, oroxin A, oroxin B, oroxylin A, oroxylin A-7-O-β-D-glucuronide, and scutellarein) were successfully fitted with pharmacokinetic parameters. The average plasma concentration–time profiles of these substances are depicted in Figure 3. […] All data were presented as the mean ± standard deviation (Mean ± SD).

[3] = male, 3 g/kg, rat plasma collected 0.5 h after oral administration of the OS extract, read-out: Concentration printed in MRM chromatogram of plasma sample (Figure 2C)
[4] = rat plasma after oral OS extract
[5] = spiked concentration 1600 ng/mL

Measured, -80°C for 7 days ([1]; spiked concentration 2 ng/mL) [ng/mL]	Measured, Autosampler for 12 h ([1]; spiked concentration 2 ng/mL) [ng/mL]	Measured, Room temperature for 4 h ([1]; spiked concentration 2 ng/mL) [ng/mL]	Measured, Three freeze-thaw cycles ([1]; spiked concentration 2 ng/mL) [ng/mL]	Measured, -80°C for 7 days ([1]; spiked concentration 20 ng/mL) [ng/mL]	Measured, Autosampler for 12 h ([1]; spiked concentration 20 ng/mL) [ng/mL]	Measured, Room temperature for 4 h ([1]; spiked concentration 20 ng/mL) [ng/mL]	Measured, Three freeze-thaw cycles ([1]; spiked concentration 20 ng/mL) [ng/mL]	Measured, -80°C for 7 days ([1]; spiked concentration 320 ng/mL) [ng/mL]	Measured, Autosampler for 12 h ([1]; spiked concentration 320 ng/mL) [ng/mL]	Measured, Room temperature for 4 h ([1]; spiked concentration 320 ng/mL) [ng/mL]	Measured, Three freeze-thaw cycles ([1]; spiked concentration 320 ng/mL) [ng/mL]	concentration at 0.5 h [2, 3] [ng/mL]	Structure (SMILES)	Plasma levels [2, 4]	other results
1.78 ± 0.17	2.07 ± 0.26	1.82 ± 0.14	1.86 ± 0.09	22.33 ± 0.89	22.77 ± 1.13	19.87 ± 0.76	18.01 ± 1.31	287.53 ± 32.71	307.85 ± 37.80	327.84 ± 23.82	310.87 ± 20.44	11	COc1c(O[C@@H]2O[C@H](C(=O)O)[C@@H](O)[C@H](O)[C@H]2O)cc(O)c2c(=O)cc(-c3ccccc3)oc12 [Wogonoside, wogonoside]	too weak to obtain comprehensive pharmacokinetic curves	
1.93 ± 0.09	2.00 ± 0.16	2.23 ± 0.11	2.07 ± 0.13	20.16 ± 2.35	20.39 ± 1.55	18.37 ± 0.87	18.24 ± 1.16	288.58 ± 21.30	316.15 ± 18.09	310.13 ± 19.51	306.45 ± 18.15		O=c1cc(-c2ccc(O)cc2)oc2cc(O)cc(O)c12 [Apigenin, apigenin]		concentration at 0.5 h ([2]; male, rat, in vivo, po): 45 ng/mL; Plasma levels ([2]; rat, in vivo, po): too weak to obtain comprehensive pharmacokinetic curves
												61	COc1c(O[C@@H]2O[C@H](C(=O)O)[C@@H](O)[C@H](O)[C@H]2O)cc2oc(-c3ccccc3)cc(=O)c2c1O [Oroxylin A-7-O-β-D-glucuronide, oroxylin A-7-O-β-D-glucuronide]		Measured, -80°C for 7 days ([1]; spiked concentration 10 ng/mL): 9.25 ± 0.47 ng/mL; Measured, Autosampler for 12 h ([1]; spiked concentration 10 ng/mL): 9.44 ± 1.32 ng/mL; Measured, Room temperature for 4 h ([1]; spiked concentration 10 ng/mL): 11.03 ± 0.43 ng/mL; Measured, Three freeze-thaw cycles ([1]; spiked concentration 10 ng/mL): 9.21 ± 0.83 ng/mL; Measured, -80°C for 7 days ([1]; spiked concentration 100 ng/mL): 95.03 ± 7.93 ng/mL; Measured, Autosampler for 12 h ([1]; spiked concentration 100 ng/mL): 98.52 ± 5.58 ng/mL; Measured, Room temperature for 4 h ([1]; spiked concentration 100 ng/mL): 108.86 ± 4.87 ng/mL; Measured, Three freeze-thaw cycles ([1]; spiked concentration 100 ng/mL): 90.02 ± 5.94 ng/mL; Measured, -80°C for 7 days [1, 5]: 1626.95 ± 164.45 ng/mL; Measured, Autosampler for 12 h [1, 5]: 1793.11 ± 46.98 ng/mL; Measured, Room temperature for 4 h [1, 5]: 1799.31 ± 27.98 ng/mL; Measured, Three freeze-thaw cycles [1, 5]: 1550.12 ± 77.94 ng/mL; AUC(0-t) ([2]; male, rat plasma, oral 3 g/kg OS extract, n = 6, mean ± SD, read-out: AUC(0-t)): 11400 ng·h/mL; AUC(0-inf) ([2]; male, rat plasma, oral 3 g/kg OS extract, n = 6, mean ± SD, read-out: AUC(0-∞)): 11600 ng·h/mL; Cmax ([2]; male, rat plasma, oral 3 g/kg OS extract, n = 6, mean ± SD, read-out: Cmax): 912 ± 350 ng/mL; half-life ([2]; male, rat plasma, oral 3 g/kg OS extract, n = 6, mean ± SD, read-out: T1/2 (converted)): 433 ± 62.4 min; Tmax ([2]; male, rat plasma, oral 3 g/kg OS extract, n = 6, mean ± SD, read-out: Tmax): 9.6 ± 1.67 h; Shape of plasma concentration-time curve [2, 4]: significant bimodal phenomena; also recorded: clear bimodal phenomena

Structure (SMILES)	Measured, -80°C for 7 days ([1]; spiked concentration 2 ng/mL) [ng/mL]	Measured, Autosampler for 12 h ([1]; spiked concentration 2 ng/mL) [ng/mL]	Measured, Room temperature for 4 h ([1]; spiked concentration 2 ng/mL) [ng/mL]	Measured, Three freeze-thaw cycles ([1]; spiked concentration 2 ng/mL) [ng/mL]	Measured, -80°C for 7 days ([1]; spiked concentration 20 ng/mL) [ng/mL]	Measured, Autosampler for 12 h ([1]; spiked concentration 20 ng/mL) [ng/mL]	Measured, Room temperature for 4 h ([1]; spiked concentration 20 ng/mL) [ng/mL]	Measured, Three freeze-thaw cycles ([1]; spiked concentration 20 ng/mL) [ng/mL]	Measured, -80°C for 7 days ([1]; spiked concentration 320 ng/mL) [ng/mL]	Measured, Autosampler for 12 h ([1]; spiked concentration 320 ng/mL) [ng/mL]	Measured, Room temperature for 4 h ([1]; spiked concentration 320 ng/mL) [ng/mL]	Measured, Three freeze-thaw cycles ([1]; spiked concentration 320 ng/mL) [ng/mL]	concentration at 0.5 h [2, 3] [ng/mL]	Plasma levels [2, 4]	other results
COc1c(O)cc2oc(-c3ccc(O)cc3)cc(=O)c2c1O [Hispidulin, hispidulin]	1.85 ± 0.14	1.79 ± 0.08	1.87 ± 0.12	1.77 ± 0.14	19.90 ± 2.31	21.61 ± 2.09	21.29 ± 2.88	20.10 ± 2.62	280.72 ± 21.00	304.61 ± 18.62	315.17 ± 13.17	289.06 ± 17.23		too weak to obtain comprehensive pharmacokinetic curves	concentration at 0.5 h ([2]; male, in vivo, 3 g/kg, rat plasma collected 0.5 h after oral administration of the OS extract, read-out: Concentration printed in MRM chromatogram of plasma sample (Figure 2C)): 36 ng/mL

— publication PMC12589998, “Development and validation of a UHPLC-QqQ-MS/MS method for simultaneous determination of fifteen major components from Oroxyli seed extract in rat plasma and its application in the pharmacokinetic study” (Frontiers in Pharmacology, 2025)
